Source: patent US9937115B2, “Oral care compositions with improved flavor” (priority 2010, dated 2018)
Structures can show the parent of a compound that is named as a salt. Where two headings read alike, the source gives them in different places. Residues, ends and D or L forms follow the SMILES beside them.

Molecular target: T1, TRPA1 receptor (Homo sapiens, UniProt O75762)
T1 construct: expressed in transfected cells; host or cells: HEK cell line
Assay: cell-based
Set-up: activation: dose or concentration left out as unconfirmed
Protocol: The term “TRPA1 activator” as used herein refers to any component which at a concentration of 1 mM gives a calcium flux count of at least 1000 counts above the background level of calcium present in the cell according to the FLIPR method as discussed herein. The term “count” is defined as the change in fluorescence of the transfected cell lines due to the influx of calcium across the cell membrane, which reacts with the calcium sensitive dye present within the cells.
In order to select TRPA1 agonists that would be preferred for reducing off-tasting chemical components found in oral care compositions, calcium flux receptor activity on the TRPA1 was utilized as the criteria for selection of actives. With allyl isothiocyanate as the TRPA1 positive control, molecules that directly activated the TRPA1 receptor were screened in dimethylsulfoxide (DMSO). Pure molecules of each material were dissolved in DMSO at a concentration of 100 micormolar and then added to an HEK cell line containing the TRPA1 receptor. If they are TRPA1 agonists, they will cause a calcium flux in the cell which fluoresces and may then be measured using a FLIPR machine.

[1] = HEK293, percentage of the control (allyl isothiocyanate) calcium count, material dissolved in DMSO at 100 micromolar, HEK cells with TRPA1, direct addition, read-out: TRPA1 Direct addition
[2] = HEK293, percentage of the control (allyl isothiocyanate) calcium count, material dissolved in DMSO at 100 micromolar, HEK cells with TRPA1, pre-incubation, read-out: TRPA1 Pre-incubation
[3] = HEK293, read-out: TRPA1 Direct addition
[4] = HEK293, read-out: TRPA1 Pre-incubation
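For TRPA1 Pre-incubation in this document: values above 100 mean more active than the control.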

T1 sequence (O75762 whole entry): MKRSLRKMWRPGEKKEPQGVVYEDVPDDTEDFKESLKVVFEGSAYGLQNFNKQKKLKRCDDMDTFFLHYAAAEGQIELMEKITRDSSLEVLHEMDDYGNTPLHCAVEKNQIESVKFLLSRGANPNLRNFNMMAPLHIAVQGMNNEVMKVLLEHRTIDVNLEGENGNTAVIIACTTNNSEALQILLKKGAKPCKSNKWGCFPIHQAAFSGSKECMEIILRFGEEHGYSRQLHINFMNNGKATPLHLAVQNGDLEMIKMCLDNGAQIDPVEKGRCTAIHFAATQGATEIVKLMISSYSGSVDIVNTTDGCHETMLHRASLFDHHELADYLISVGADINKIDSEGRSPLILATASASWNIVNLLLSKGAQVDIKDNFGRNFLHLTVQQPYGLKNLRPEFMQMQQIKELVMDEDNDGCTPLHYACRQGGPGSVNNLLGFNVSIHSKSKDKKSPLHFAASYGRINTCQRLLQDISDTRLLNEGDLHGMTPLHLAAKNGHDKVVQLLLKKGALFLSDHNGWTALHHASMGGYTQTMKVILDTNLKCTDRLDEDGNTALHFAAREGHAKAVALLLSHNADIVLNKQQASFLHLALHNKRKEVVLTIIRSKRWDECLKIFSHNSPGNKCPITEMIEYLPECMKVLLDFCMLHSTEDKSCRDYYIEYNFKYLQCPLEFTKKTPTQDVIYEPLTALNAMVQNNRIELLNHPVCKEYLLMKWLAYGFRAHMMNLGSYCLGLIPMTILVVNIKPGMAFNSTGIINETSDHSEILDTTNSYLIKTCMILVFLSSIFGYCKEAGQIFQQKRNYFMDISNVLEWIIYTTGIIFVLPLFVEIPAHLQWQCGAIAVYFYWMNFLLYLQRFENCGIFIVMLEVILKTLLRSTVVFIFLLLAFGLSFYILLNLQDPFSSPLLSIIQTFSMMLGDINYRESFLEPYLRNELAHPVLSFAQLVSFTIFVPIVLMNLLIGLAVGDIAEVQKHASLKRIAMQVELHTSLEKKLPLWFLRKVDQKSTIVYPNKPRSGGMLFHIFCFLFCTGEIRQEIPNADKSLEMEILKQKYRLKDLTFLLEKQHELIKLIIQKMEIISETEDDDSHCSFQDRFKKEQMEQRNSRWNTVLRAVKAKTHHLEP

Molecule | activation at 100 µM [1] [%] | activation [2] [%] | further results
2-Methybutyl Isovalerate |  |  | TRPA1 Direct addition: −1.49%; TRPA1 Pre-incubation: 69.9%
CC=Cc1ccc(OCc2ccccc2)c(OC)c1 [1-Benzyloxy-2-Mehtoxy-4-(1-Propenyl) Benzene] |  |  | TRPA1 Direct addition: −3.8%; TRPA1 Pre-incubation: 30.8%
Cn1cccc1C=O [1-Methylpyrrole-2-carboxaldehyde] | -3.47 | -1.04 | 
Cc1cnc(C)c(C)n1 [2,3,5-Trimethyl-pyrazine] | -1.13 | 48.8 | 
CCc1ncc(C)nc1CC [2,3-Diethyl-5-Methylpyrazine] | 0.99 | 76.9 | 
Cc1nccnc1C [2,3-Dimethylpyrazine] | -1.77 | 62.6 | 
CCCC(=O)C(C)=O [2,3-Hexanedione] | -0.19 | 101 | 
Cc1cnc(C)cn1 [2,5-Dimethylpyrazine] | -1.08 | 66.8 | 
CC1=C(CC=O)C(C)(C)CCC1 [2,6,6-Trimethyl-1-cyclohexene-1-acetaldehyde] | -0.32 | 106 | 
COc1cccc(OC)c1O [2,6-Dimethoxyphenol] | -0.24 | 71.6 | 
CC(C)=CCCC(C)C=O (stereo not drawn) [2,6-Dimethyl-5-Heptenal] | -0.15 |  | activation at 100 µM [2]: 97.6%
CCc1cnccn1 [2-Ethylpyrazine] | -1.56 | 49.9 | 
CCc1ccccc1S [2-Ethylthiophenol] | 0.34 | 5.23 | 
COc1nccnc1C [2-Methoxy-3-Methylpyrazine] | -0.83 | 84.7 | 
C=Cc1ccc(O)c(OC)c1 [2-Methoxy-4-Vinylphenol] | 1.16 | 71.4 | 
CCC(C)CO (stereo not drawn) [2-Methyl-1-Butanol] | -1.19 | 71.6 | 
CCC=C(C)C(=O)O [2-Methyl-2-Pentenoic Acid] | -1.27 | 73.8 | 
CCC(C)COC(C)=O (stereo not drawn) [2-Methylbutyl Acetate] | -0.99 | 60.3 | 
CC1OCCC1=O (stereo not drawn) [2-Methyltetrahydrofuran-3-one] | -1.5 | 77.5 | 
CCCCCCCCCC(C)C=O (stereo not drawn) [2-Methylundecanal] | 0.82 | 79.8 | 
CCCCCCCCCCCC(C)=O [2-Tridecanone] | 7.21 | 60.8 | 
CCC(C)C1CCCCC1=O (stereo not drawn) [2-sec-Butylcyclohexanon] | -1.47 | 63.7 | 
CC(CC=O)CC(C)(C)C (stereo not drawn) [3,5,5-Trimethyl Hexanal] | 75.7 | 92.2 | 
CSCCCO [3-(Methylthio) Propanol] | -0.92 | 73.1 | 
CC(=O)c1cc(C)sc1C [3-Acetyl-2,5-Dimethylthiophene] | 5.75 | 64.4 | 

Molecule | activation at 100 µM [1] [%] | activation [2] [%] | further results
CC(C)=CC=O [3-Methyl-2-Butenal] | 34.4 | 66.3 | 
CCC(C)C(=O)OCCC(C)C (stereo not drawn) [3-Methylbutyl-2-Methylbutanoate] | -1.18 | 71.4 | 
OCCCc1ccccc1 [3-Phenyl-1-Propanol] | -0.04 | 92.2 | 
CCC=C1OC(=O)c2ccccc21 [3-Propylidenephthalide] | 116 | 6.21 | 
Cc1coc2c1CCC(C)C2 (stereo not drawn) [4,5,6,7-Tetrahydro-3,6-Dimethylbenzofuran] | 0.57 | 84.8 | 
CC1=C(O)C(=O)OC1C (stereo not drawn) [4,5-Dimethyl-3-Hydroxy-2,5-Dihydrofuran-2-one] | 0.18 | 89.1 | 
COc1ccc(CCC(C)=O)cc1 [4-(4-Methoxyphenyl)-2-Butanone] | -3.93 | 71.3 | 
C=CCc1cc(OC)c(O)c(OC)c1 [4-Allyl-2,6-Dimethoxyphenol] | 39.2 | 15.5 | 
CC1=C(O)C(=O)C(C)O1 (stereo not drawn) [4-Hydroxy-2,5-Dimethyl-3(2H)-Furanone] | 2.68 | 72 | 
COc1cc(C)cc(OC)c1O [4-Methyl-2,6-Dimethoxyphenol] | 45.9 | 9.25 | 
CC(=O)OCCc1scnc1C [4-Methyl-5-Thiazoleethanol Acetate] | 0.62 | 76.4 | 
Cc1ncsc1CCO [4-Methyl-5-Thiazoleethanol] | 0.56 | 72.8 | 
CCC1OC(=O)C(O)=C1C (stereo not drawn) [5-Ethyl-3-Hydroxy-4-Methyl-2(5H)-Furanone] | 1.79 | 72.5 | 
CC=CC(=O)C(C)CC (stereo not drawn) [5-Methyl-2-Hepten-4-one] | 15.5 | 87.8 | 
CC(C)CC=C(C=O)c1ccccc1 [5-Methyl-2-Phenyl-2-Hexenal] |  |  | activation [3]: 132%; activation [4]: -11.7%
CC1=CC(=O)[N-]S(=O)(=O)O1.[K+] [Acesulfame K] |  |  | TRPA1 Direct addition: −0.12%; TRPA1 Pre-incubation: 95.57%
CC(=O)O [Acetic Acid] |  |  | activation [3]: 0.27%; activation [4]: 68.5%
CC(=O)C(C)O (stereo not drawn) [Acetoin] | 0.29 | 82.6 | 
CC(=O)c1ccccc1 [Acetophenone] | 0.64 | 81.1 | 
C=CCOC(=O)CCC [Allyl Butyrate] | 0.02 | 98 | 
C=CCOC(=O)CCC1CCCCC1 [Allyl Cyclohexanepropionate] | 0.45 | 81.7 | 
C=CCOC(=O)CCCCC [Allyl Hexanoate] | 0.75 | 88.1 | 
C=CCN=C=S [Allyl Isothiocyanate, reference compound] |  | 21.6 | % of AITC Receptor Activation (from Data in Table II) (restated in Table III from Table II): 100%
C=CCOC(=O)CCCCCCCC [Allyl Nonanoate] | -1.87 | 69.6 | 
C=CCOC(=O)c1ccccc1N [Allyl anthranilate] | 0.29 | 99.5 | 

Molecule | activation at 100 µM [1] [%] | activation [2] [%] | further results
CC(=O)OC(C)(C)Cc1ccccc1 [Alpha, Alpha Dimethylphenethyl Acetate] | -3.2 | 72 | 
CCCCCC(=Cc1ccccc1)C(OC)OC [Alpha-Amylcinnamaldehyde Dimethyl acetal] | -2.4 | -0.12 | 
CC(=O)OC(C)c1ccccc1 (stereo not drawn) [Alpha-Methylbenzyl Acetate] | 1.45 | 70.8 | 
CC1=CCC2CC1C2(C)C (stereo not drawn) [Alpha-Pinene] | -3.07 | 86.6 | 
CC1=CCC(C(C)(C)O)CC1 (stereo not drawn) [Alpha-Terpineol] | 15.8 | 60.5 | 
CCCCCOC(=O)c1ccco1 [Amyl 2-Furoate] | -2.39 | 74.1 | 
CCCCCO [Amyl Alcohol] | -1.94 | 85.9 | 
CCCCCOC(=O)CCC [Amyl Butyrate] | -2.64 | 75.9 | 
COC(=O)[C@H](Cc1ccccc1)NC(=O)[C@@H](N)CC(=O)O [Aspartame] (H-Asp-Phe-OMe) | -2.15 | 80 | 
COC(OC)c1ccccc1 [Benzaldehyde Dimethyl Acetal] |  |  | activation [3]: -0.68%; activation [4]: 120%
O=Cc1ccccc1 [Benzaldehyde] | -1.46 | 90.1 | 
O=C(c1ccccc1)C(O)c1ccccc1 (stereo not drawn) [Benzoin] | -0.5 | 56.2 | 
c1ccc2scnc2c1 [Benzothiazole] | -2.29 | 81.5 | 
CC(=O)OCc1ccccc1 [Benzyl Acetate] | -0.31 | 74.5 | 
OCc1ccccc1 [Benzyl Alcohol] | 21.4 | 14.6 | 
O=C(OCc1ccccc1)c1ccccc1 [Benzyl Benzoate] | 53.9 | 18.9 | 
CCCC(=O)OCc1ccccc1 [Benzyl Butyrate] | -3.01 | 58.7 | 
O=C(C=Cc1ccccc1)OCc1ccccc1 [Benzyl Cinnamate] |  | 81.1 | activation [1]: -2.39%
CCOCc1ccccc1 [Benzyl Ethyl Ether] | -2.24 | 66.2 | 
O=COCc1ccccc1 [Benzyl Formate] |  | 75.3 | activation [1]: -3.01%
CC(C)C(=O)OCc1ccccc1 [Benzyl Isobutyrate] | -2.7 | 65 | 
CCC(=O)OCc1ccccc1 [Benzyl Propionate] | 0.52 | 63 | 
C=C1CC/C=C(\C)CC[C@@H]2[C@@H]1CC2(C)C [Beta-Caryophyllene] | 0.21 | 97.8 | 
C=C1CCC2CC1C2(C)C (stereo not drawn) [Beta-Pinene] | -6.02 | 73.6 | 
CC1(C)C2CCC1(C)C(O)C2 (stereo not drawn) [Borneol] | -1.6 | 51 | 
